Assay results as given in ChEMBL document CHEMBL1201862, “PubChem BioAssay data set” (2004).
Active and inactive are the calls of the source.

Legend:
Cytochrome P450 3A4 [1] = molecular target: T1, Cytochrome P450 3A4 (Homo sapiens, UniProt P08684);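 note: CYP3A4 tested as one member of a cytochrome P450 panel screen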
Cytochrome P450 1A2 = molecular target: T2, Cytochrome P450 1A2 (Homo sapiens, UniProt P05177);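 note: PubChem cytochrome P450 panel assay, CYP1A2 panel member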
T2 sequence (P05177 whole entry): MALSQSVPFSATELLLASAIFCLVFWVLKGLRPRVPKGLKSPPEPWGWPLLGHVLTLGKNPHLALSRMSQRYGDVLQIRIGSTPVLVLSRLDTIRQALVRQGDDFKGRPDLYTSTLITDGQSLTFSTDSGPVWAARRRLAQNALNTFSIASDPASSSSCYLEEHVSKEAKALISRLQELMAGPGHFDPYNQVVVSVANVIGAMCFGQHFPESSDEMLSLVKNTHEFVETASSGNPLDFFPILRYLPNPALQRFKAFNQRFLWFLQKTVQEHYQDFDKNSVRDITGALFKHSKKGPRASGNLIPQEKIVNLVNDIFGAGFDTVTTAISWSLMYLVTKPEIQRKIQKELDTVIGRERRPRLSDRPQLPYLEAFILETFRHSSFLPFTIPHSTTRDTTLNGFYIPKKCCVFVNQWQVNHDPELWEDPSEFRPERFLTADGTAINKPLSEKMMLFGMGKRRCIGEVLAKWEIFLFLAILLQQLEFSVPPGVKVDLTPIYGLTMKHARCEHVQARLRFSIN

Cytochrome P450 2C9 [2] = molecular target: T3, Cytochrome P450 2C9 (Homo sapiens, UniProt P11712)
T3 sequence (P11712 whole entry, the tested form may be a part): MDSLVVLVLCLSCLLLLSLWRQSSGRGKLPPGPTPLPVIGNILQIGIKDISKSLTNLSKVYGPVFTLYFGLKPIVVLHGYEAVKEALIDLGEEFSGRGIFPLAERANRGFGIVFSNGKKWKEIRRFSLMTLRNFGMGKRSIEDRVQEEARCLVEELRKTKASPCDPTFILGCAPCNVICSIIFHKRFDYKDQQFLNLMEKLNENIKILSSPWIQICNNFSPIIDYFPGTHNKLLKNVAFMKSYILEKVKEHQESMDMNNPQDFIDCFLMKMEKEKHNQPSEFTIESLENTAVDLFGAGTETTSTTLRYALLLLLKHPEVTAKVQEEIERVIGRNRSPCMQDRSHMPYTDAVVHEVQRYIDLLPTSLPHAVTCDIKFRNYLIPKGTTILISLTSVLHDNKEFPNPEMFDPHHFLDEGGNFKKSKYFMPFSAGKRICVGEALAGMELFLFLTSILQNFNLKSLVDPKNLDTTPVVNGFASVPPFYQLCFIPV

[3] = molecular target: T4, Polyadenylate-binding protein 1 (Homo sapiens, UniProt P11940); experiment: MLLE domain peptide-binding blockers, IC50 – biochemical, fluorescence polarization, FITC-PAM2 peptide, dose response (AID 602259); type: functional; details: read-out: IC50_Mean
T4 sequence (P11940 whole entry, the tested form may be a part): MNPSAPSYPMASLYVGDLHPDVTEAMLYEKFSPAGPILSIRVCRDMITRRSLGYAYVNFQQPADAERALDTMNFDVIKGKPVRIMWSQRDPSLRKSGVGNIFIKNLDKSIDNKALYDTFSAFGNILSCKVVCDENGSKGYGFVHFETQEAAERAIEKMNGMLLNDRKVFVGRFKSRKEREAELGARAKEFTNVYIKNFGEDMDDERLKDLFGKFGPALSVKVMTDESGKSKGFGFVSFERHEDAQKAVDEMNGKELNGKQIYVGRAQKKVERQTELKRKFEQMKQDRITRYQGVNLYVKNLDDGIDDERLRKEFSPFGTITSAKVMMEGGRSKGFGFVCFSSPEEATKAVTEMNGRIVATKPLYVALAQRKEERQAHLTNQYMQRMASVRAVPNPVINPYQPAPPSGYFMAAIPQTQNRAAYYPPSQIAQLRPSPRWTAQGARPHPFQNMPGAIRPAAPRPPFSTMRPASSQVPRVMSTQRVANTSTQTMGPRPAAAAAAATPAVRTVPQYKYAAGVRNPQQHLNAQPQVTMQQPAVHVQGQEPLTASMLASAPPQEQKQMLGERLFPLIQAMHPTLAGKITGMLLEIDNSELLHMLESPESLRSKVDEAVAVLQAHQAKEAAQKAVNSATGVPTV

[4] = Luminescence Cell-Based Dose Confirmation HTS to Identify Inhibitors of Platelet Dense Granule Release. [Related pubchem assays: 1663 (Primary HTS), 1678 (Summary of Project)]; type: functional
[5] = molecular target: T5, RNA-binding protein pos-1 (Caenorhabditis elegans, UniProt G5EF15); experiment: disruptors of C. elegans POS-1 RNA interaction – biochemical, fluorescence polarization, dose response (AID 1964);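 note: purified POS-1 fused to maltose binding protein made in E. coli; potency of compounds blocking POS-1 binding to fluorescent RNA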
T5 sequence (G5EF15 whole entry): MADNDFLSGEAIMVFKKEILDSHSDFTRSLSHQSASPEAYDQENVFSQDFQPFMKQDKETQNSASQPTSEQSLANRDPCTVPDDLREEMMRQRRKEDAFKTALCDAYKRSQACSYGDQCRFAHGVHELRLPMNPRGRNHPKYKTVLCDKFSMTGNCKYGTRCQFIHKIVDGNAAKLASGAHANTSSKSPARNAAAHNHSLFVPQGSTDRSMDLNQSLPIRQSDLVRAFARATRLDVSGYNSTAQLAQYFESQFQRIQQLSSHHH

[6] = molecular target: T6, Zinc finger protein mex-5 (Caenorhabditis elegans, UniProt Q9XUB2); experiment: potency of MEX-5 RNA-binding blockers – biochemical, C. elegans, fluorescence polarization, dose response (AID 1960)
T6 sequence (Q9XUB2 whole entry): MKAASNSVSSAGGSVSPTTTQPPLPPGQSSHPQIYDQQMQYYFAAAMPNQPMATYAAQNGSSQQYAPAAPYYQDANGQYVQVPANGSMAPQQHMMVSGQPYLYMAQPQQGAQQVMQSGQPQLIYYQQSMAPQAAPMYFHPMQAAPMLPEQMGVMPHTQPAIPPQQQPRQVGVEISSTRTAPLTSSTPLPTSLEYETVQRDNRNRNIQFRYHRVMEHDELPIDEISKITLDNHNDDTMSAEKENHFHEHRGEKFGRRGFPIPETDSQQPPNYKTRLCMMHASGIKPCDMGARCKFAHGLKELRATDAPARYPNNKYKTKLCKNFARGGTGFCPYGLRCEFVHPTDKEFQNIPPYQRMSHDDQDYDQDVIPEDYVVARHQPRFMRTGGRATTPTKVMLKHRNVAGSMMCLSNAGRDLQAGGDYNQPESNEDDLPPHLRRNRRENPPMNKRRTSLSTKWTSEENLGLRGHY

[7] = molecular target: Luciferin 4-monooxygenase (Photinus pyralis, UniProt P08659); experiment: inhibition of purified Photinus pyralis luciferase – biochemical, luminescence, dose response (AID 1891)
Luciferin 4-monooxygenase, sequence (P08659 whole entry): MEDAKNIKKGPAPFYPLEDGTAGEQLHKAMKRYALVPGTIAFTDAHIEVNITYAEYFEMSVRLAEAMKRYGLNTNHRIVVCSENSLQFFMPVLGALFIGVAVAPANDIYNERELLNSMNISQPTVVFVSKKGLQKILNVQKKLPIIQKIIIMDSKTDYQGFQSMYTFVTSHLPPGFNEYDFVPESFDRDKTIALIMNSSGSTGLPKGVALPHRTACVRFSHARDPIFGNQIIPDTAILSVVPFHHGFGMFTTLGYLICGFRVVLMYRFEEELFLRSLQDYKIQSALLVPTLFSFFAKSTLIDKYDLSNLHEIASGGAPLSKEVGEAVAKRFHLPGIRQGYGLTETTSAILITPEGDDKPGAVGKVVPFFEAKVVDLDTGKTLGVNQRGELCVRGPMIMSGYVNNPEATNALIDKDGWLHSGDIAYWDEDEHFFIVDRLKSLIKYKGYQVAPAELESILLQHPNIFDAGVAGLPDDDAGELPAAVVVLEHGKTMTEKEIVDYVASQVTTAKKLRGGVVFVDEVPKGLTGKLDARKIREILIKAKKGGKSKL

[8] = molecular target: T4, Polyadenylate-binding protein 1; experiment: MLLE binding blockers, Cy5 peptide tracer – biochemical, fluorescence polarization, Cy5-PAM2 peptide, secondary, miRNA deadenylation inhibitor project, dose response (AID 602260); type: functional; details: read-out: IC50_Mean
[9] = viability of HCT116 lacking mutant beta-catenin – cell-based, human colon tumor, dose response (AID 1045); type: functional;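 note: HCT116 colon tumor cells with beta catenin knocked out; cells exposed to compound for 60 hours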
[10] = viability of PTEN-deleted HCT116 cells – cell-based, HCT116 PTEN knockout, dose response (AID 1047); type: functional;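 note: HCT116 colon tumor cells with PTEN knocked out; cells exposed to compound for 60 hours before readout; potency for loss of cell viability measured by luminescence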
Leucine aminopeptidase = molecular target: T7, Leucine aminopeptidase (Plasmodium falciparum 3D7, UniProt Q8IL11); experiment: P. falciparum M17LAP inhibitors, primary screen, biochemical, fluorogenic H-Leu-NHMec substrate, 1536-well (AID 1619); type: functional
T7 sequence (Q8IL11 whole entry): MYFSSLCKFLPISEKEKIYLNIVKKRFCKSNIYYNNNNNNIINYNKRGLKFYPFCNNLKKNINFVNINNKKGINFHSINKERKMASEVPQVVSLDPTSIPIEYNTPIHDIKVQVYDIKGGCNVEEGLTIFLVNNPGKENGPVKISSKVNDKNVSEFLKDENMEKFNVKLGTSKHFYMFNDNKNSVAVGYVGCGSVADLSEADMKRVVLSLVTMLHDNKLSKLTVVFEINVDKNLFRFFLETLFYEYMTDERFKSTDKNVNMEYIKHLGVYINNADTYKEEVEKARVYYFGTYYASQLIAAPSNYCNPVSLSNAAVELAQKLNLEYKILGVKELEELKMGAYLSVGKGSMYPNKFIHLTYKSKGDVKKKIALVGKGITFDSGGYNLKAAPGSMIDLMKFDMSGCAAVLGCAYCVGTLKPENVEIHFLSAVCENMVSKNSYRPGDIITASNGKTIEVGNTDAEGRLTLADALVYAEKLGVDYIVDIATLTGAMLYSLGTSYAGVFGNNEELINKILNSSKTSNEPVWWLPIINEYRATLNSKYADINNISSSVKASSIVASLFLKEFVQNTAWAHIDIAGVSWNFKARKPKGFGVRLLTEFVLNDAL

Cytochrome P450 2D6 = Cytochrome P450 2D6 (Homo sapiens, UniProt P10635);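 note: CYP2D6 member of a cytochrome P450 panel assay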
Cytochrome P450 2D6, sequence (P10635 whole entry): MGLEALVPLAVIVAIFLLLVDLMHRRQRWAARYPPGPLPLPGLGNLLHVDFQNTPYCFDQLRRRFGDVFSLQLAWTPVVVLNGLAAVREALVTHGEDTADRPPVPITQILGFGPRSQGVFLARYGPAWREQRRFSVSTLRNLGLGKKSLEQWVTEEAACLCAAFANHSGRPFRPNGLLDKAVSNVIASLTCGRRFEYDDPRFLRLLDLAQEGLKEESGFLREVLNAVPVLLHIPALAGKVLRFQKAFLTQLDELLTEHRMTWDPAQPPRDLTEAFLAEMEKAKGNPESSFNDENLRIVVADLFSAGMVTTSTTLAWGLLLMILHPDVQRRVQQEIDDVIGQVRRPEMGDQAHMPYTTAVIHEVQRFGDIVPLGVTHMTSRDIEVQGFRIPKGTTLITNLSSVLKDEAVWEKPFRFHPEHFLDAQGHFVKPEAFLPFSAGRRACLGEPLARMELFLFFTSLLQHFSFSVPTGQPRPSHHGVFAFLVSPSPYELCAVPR

Cytochrome P450 2C19 = Cytochrome P450 2C19 (Homo sapiens, UniProt P33261); experiment: Cytochrome panel assay with activity outcomes. Panel member name: p450-cyp2c19 Compounds with AC50 equal or less than 10 uM are considered active; type: functional; details: read-out: AC50
Cytochrome P450 2C19, sequence (P33261 whole entry): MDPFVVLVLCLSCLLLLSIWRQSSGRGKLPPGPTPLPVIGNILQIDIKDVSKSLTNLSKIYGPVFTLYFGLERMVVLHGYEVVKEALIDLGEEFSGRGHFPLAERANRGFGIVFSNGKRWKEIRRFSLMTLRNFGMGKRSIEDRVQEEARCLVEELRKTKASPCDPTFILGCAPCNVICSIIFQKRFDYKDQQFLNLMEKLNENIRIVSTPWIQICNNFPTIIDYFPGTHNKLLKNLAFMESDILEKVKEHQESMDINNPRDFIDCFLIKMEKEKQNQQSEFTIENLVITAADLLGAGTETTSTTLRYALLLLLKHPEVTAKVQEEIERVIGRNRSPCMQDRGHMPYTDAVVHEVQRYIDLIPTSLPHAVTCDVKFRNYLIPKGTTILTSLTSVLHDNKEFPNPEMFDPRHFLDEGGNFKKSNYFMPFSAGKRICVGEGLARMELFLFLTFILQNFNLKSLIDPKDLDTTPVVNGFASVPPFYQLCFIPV

Cytochrome P450 3A4 [11] = molecular target: T1, Cytochrome P450 3A4; remark: listed apart in the source
[12] = Luminescence Cell-Based Dose Confirmation HTS to Identify Activators of 5'UTR Stem-Loop Driven Alpha-Synuclein mRNA Translation in H4 Neuroglioblastoma Cells. [Related pubchem assays: 1829 (Project Summary), 1814 (Primary HTS)]; type: functional
H4 = experiment: Luminescence Cell-Based Dose Response HTS to Identify Activators of 5'UTR Stem-Loop Driven Prion Protein mRNA Translation in H4 Neuroglioblastoma Cells. [Related pubchem assays: 1829 (Project Summary), 1814 (Primary HTS)]; type: functional; details: Homo sapiens
[13] = Luminescence Cell-Based Dose Response HTS to Identify Activators of Luciferase Translation or Activity in H4 […] Cells. [Related pubchem assays: 1829 (Project Summary), 1814 (Primary HTS)]; type: functional
Cytochrome P450 2C9 [14] = molecular target: T3, Cytochrome P450 2C9; remark: listed apart in the source

T1 sequence (P08684 whole entry): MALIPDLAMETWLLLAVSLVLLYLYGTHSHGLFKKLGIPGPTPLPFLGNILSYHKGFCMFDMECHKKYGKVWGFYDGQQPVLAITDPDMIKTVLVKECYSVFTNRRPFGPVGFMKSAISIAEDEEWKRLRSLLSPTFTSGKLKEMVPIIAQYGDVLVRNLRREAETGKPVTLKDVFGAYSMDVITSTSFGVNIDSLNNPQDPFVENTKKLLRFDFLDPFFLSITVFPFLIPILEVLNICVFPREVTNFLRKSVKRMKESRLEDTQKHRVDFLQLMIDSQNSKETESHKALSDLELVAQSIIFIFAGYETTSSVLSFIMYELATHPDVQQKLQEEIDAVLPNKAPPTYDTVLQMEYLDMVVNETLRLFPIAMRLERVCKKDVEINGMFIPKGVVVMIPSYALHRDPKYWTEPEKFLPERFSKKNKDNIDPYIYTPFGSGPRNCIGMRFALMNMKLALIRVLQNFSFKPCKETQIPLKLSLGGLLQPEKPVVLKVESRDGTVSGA

For `C=CC[C@H](N)C(=O)O`, the AC50 (Cytochrome P450 3A4 [1]) was “inconclusive”.
For `CCS(=O)(=O)N1CCC[C@H]2CN3CCc4cc(OC)ccc4[C@@H]3C[C@@H]21`, the AC50 (Cytochrome P450 1A2) was 31.6 µM (inconclusive) and the AC50 (Cytochrome P450 2C9 [2]) was “inconclusive”.
With `Cc1ccc(N=C(S)c2ccc3ccccc3n2)c(C)c1` the IC50 [3] was > 66 µM (inactive), the EC50 [4] was > 112 µM (not active) and the EC50 [5] was > 300 µM (not active). The EC50 [6] was > 300 µM (not active), the EC50 [7] was > 112 µM (not active) and the IC50 [8] was > 66 µM (inactive).
In the case of `Cc1ccc(O)c(N=Nc2ccccc2)n1`, the EC50 [4] is reported as < 0.701 µM (active) and the EC50 [7] is reported as 1.2 µM (active).
In the case of `CCN(CC)CCO[C@H]1CC[C@@]2(C)C(=CC[C@@H]3[C@H]2CC[C@]2(C)C(=O)CC[C@H]32)C1`, the AC50 (Cytochrome P450 3A4 [1]) is reported as “inconclusive”.
In the case of `CO/N=C/c1ccc(N2CCN(C(=O)c3ccc(Cl)cc3Cl)CC2)c([N+](=O)[O-])c1`, the EC50 [9] is reported as 22.3 µM (active), the EC50 [10] is reported as 20.3 µM (active) and the AC50 (Cytochrome P450 3A4 [1]) is reported as “inconclusive”.
For `O=C(OCC(=O)N1CCCC1)c1ccccc1OCc1ccccc1`, the IC50 (Leucine aminopeptidase) was 4.38 µM (active).
For `CCC(=O)Nc1cccc(-c2nc3ccccc3c(=O)o2)c1`, the AC50 (Cytochrome P450 2D6) was 31.6 µM (inconclusive), the AC50 (Cytochrome P450 2C9 [2]) was “inconclusive” and the AC50 (Cytochrome P450 2C19) was 39.8 µM (inconclusive). The AC50 (Cytochrome P450 3A4 [11]) was 28.2 µM (inconclusive).
With `Cn1c(=O)c2cc(S(=O)(=O)NCCC(=O)NCCc3ccc(Cl)cc3)ccc2n(C)c1=O` the AC50 (Cytochrome P450 1A2) was 0.0398 µM (inconclusive) and the AC50 (Cytochrome P450 2C9 [2]) was “inconclusive”.
For `O=C(NCc1cccs1)C1CCN(S(=O)(=O)c2cccc3nsnc23)CC1`, the AC50 (Cytochrome P450 1A2) was 0.158 µM (inconclusive), the AC50 (Cytochrome P450 2D6) was 6.31 µM (inconclusive) and the AC50 (Cytochrome P450 2C9 [2]) was “inconclusive”.
For `Cc1c(Nc2nc3ccccc3nc2NS(=O)(=O)c2cccc(Cl)c2)c(=O)n(-c2ccccc2)n1C`, the IC50 (Leucine aminopeptidase) was 21.3 µM (active).
For `O=C(CCNC(=O)c1ccc(Br)o1)NCc1ccccn1`, the AC50 (Cytochrome P450 1A2) was 14.1 µM (inconclusive), the AC50 (Cytochrome P450 2C9 [2]) was “inconclusive” and the AC50 (Cytochrome P450 2C19) was 17.8 µM (inconclusive). The AC50 (Cytochrome P450 3A4 [11]) was 14.1 µM (inconclusive).
With `O=C(O)CCN1C(=O)CC(N2C(=O)/C(=C/c3ccc(Cl)cc3)SC2=S)C1=O` (stereo unspecified) the IC50 (Leucine aminopeptidase) was 22.5 µM (active).
For `Cc1ccccc1-n1c(=O)cc(N2CC(C)OC(C)C2)[nH]c1=O` (stereo unspecified), the AC50 (Cytochrome P450 3A4 [1]) was “inconclusive”.
For `Cc1ccccc1-c1cc(NCCN2CCOCC2)ncn1`, the AC50 (Cytochrome P450 1A2) was 31.6 µM (inconclusive) and the AC50 (Cytochrome P450 3A4 [1]) was “inconclusive”.
In the case of `CC(C)c1ccc(-c2cc(C(=O)NN3CCN(C)CC3)c3ccccc3n2)cc1`, the EC50 [12] is reported as 3.59 µM (active), the EC50 (H4) is reported as 9.4 µM (active) and the EC50 [4] is reported as 5.93 µM (active). For the same molecule, the EC50 [7] was 18.2 µM (active) and the EC50 [13] was 3.27 µM (active).
In the case of `CSc1nc2ccccc2cc1/C=C(\C#N)c1ccccc1`, the AC50 (Cytochrome P450 3A4 [1]) is reported as “inconclusive”.
With `CC1(C)CC(N2CCC(=O)NC2=S)CC(C)(C)N1` the EC50 [4] was > 112 µM (not active) and the EC50 [7] was > 112 µM (not active).
With `Oc1cccc(/C=N/Nc2nn3cnnc3c3ccccc23)c1` the EC50 [4] was 18.8 µM (active) and the EC50 [7] was 5.06 µM (active).
In the case of `O=C(NC1CCN(Cc2ccccc2)CC1)c1ccc(I)cc1`, the AC50 (Cytochrome P450 1A2) is reported as 39.8 µM (inconclusive), the AC50 (Cytochrome P450 3A4 [1]) is reported as “inconclusive” and the AC50 (Cytochrome P450 2C9 [14]) is reported as 39.8 µM (inconclusive).
With `C[C@@]12CC[C@@H]3[C@@H](CC[C@H]4C[C@@H](O)CC[C@]43C)[C@H]1CC[C@@H]2c1cc(C(F)(F)F)[nH]n1` the AC50 (Cytochrome P450 3A4 [1]) was “inconclusive” and the AC50 (Cytochrome P450 2C9 [14]) was 7.94 µM (inconclusive).
With `Cc1cccc(C(=N)NOC(=O)c2ccccc2Cl)c1` the EC50 [4] was 3.84 µM (active) and the EC50 [7] was 1.96 µM (active).
